Source: patent US5393738A (Sandoz, Ltd., priority 1986, dated 1995)
Where two headings read alike, the source gives them in different places.

Assays:
[1] = Biopharmaceutical properties of SMS: first pass effect and excretion; format: in vivo; conditions: rat
[2] = Stability of SMS in gastric juices; format: in vitro ADME

**Q.** Which dose excreted ([1]; bile, read-out: excreted as the unchanged drug in the bile) does the source give for `C[C@@H](O)[C@@H]1NC(=O)[C@H](CCCCN)NC(=O)[C@@H](Cc2c[nH]c3ccccc23)NC(=O)[C@H](Cc2ccccc2)NC(=O)[C@@H](NC(=O)[C@H](N)Cc2ccccc2)CSSC[C@@H](C(=O)N[C@H](CO)[C@@H](C)O)NC1=O` [SMS, octreotide] here?
**A.** Its dose excreted is ~80%.

**Q.** And the dose excreted ([1]; urine, read-out: excreted as the unchanged drug in the urine)?
**A.** Its dose excreted is ~20%.

**Q.** What about the “stability in gastric juices” value [2] of the same compound?
**A.** Its value is “extremely stable”.
